Structures are written as SMILES.

Experiment [1] concerns the target T1, human SGLT2 (Homo sapiens, UniProt P31639).
T1 construct: expressed in transfected cells; host or cells: CHO-K1
T1 sequence (P31639 1-672): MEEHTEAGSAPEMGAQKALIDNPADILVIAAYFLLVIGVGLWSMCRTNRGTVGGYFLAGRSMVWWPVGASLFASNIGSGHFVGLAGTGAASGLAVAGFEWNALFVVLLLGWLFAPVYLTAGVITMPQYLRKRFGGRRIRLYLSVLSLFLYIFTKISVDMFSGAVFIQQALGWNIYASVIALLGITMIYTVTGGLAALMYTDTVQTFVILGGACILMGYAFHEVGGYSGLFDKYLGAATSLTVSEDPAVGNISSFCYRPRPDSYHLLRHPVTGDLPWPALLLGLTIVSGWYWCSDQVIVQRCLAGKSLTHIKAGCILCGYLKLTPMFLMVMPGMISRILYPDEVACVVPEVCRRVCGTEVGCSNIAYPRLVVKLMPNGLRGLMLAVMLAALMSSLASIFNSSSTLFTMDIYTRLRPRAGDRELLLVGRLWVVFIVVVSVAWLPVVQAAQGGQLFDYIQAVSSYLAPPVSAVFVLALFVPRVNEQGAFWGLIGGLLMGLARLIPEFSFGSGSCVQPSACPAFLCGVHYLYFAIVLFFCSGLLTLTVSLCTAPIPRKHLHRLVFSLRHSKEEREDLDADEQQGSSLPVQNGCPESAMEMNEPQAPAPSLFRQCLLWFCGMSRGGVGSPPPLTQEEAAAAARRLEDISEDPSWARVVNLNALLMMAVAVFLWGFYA
In words: SGLT2 assay: Na-dependent 14C-AMG uptake in CHO-K1 cells stably expressing human SGLT2. Format: cell-based. The following applies: for IC50: 500 μM AMG, 2 hours at 37° C. As for the experimental part:
(§1) SGLT1 and SGLT2 were cloned in form of cDNA from human small intestine (Genbank M24847), and from human kidney (Genbank M95549), respectively. Subsequently, each full cDNA was subcloned into pcDNA with each construct's integrity verified through follow-on sequencing. To generate CHO-K1 cells that stably express human SGLT1 or human SGLT2, CHO-K1 cells were transfected using DMRIE-C reagent (Life Technologies, Gaithersburg, Md.). Transfected cells were then selected in the presence of 500 μg/ml of the Geneticin (G418 Cellgro Catalog No. 30234-CI)
(§2) Individual clones were then characterized using the following cell-based assay for sodium-dependent glucose transport:
(§3) Inhibition of SGLT1 and SGLT2 activity was assessed in CHO K1 cells stably expressing either human SGLT1 or SGLT2, using the SGLT specific glucose analog methyl-glucopyranoside (Sigma Catalog No. M-9376). Cells were plated (45,000 cells/well) in white wall 96-well plates (COSTAR, Cat#3903) for 24 hours in growth medium, then a final concentration of 10 mM Na-Butyrate (ALDRICH Cat#30341-0) was added. The cells were incubated for 24 hours. On the day of the assay, cells were rinsed and treated with test compounds (at concentrations of 0.001 μM to 10 μM) in assay buffer (50 mM HEPES, 20 mM Tris base, 5 mM KCl, 1 mM MgCl2, 1 mM CaCl2 and 137 mM NaCl, pH 7.4) for 10 minutes. Cells were then incubated with ^14C-a-methyl-d-glucopyranoside (AMG, Amersham Catalog No. CFB 76), using 0.07 μCi per well in 500 μM AMG final concentration. The cells were incubated for 2 hours at 37° C. with 5% CO2 and washed two times with ice-cold Phosphate Buffer Solution (Cellgro Catalog No. 21030-CV). The cells were then solubilized by adding 60 μl of MICROSCINT™20 and the Na-dependent ^14C-AMG uptake was quantified by measuring radioactivity. Plates were counted in a TopCount (Packard, Meriden, Conn.)

Experiment [2] concerns the target T2, human SGLT1 (Homo sapiens, UniProt P13866).
T2 construct: expressed in transfected cells; host or cells: CHO-K1
T2 sequence (P13866 1-664): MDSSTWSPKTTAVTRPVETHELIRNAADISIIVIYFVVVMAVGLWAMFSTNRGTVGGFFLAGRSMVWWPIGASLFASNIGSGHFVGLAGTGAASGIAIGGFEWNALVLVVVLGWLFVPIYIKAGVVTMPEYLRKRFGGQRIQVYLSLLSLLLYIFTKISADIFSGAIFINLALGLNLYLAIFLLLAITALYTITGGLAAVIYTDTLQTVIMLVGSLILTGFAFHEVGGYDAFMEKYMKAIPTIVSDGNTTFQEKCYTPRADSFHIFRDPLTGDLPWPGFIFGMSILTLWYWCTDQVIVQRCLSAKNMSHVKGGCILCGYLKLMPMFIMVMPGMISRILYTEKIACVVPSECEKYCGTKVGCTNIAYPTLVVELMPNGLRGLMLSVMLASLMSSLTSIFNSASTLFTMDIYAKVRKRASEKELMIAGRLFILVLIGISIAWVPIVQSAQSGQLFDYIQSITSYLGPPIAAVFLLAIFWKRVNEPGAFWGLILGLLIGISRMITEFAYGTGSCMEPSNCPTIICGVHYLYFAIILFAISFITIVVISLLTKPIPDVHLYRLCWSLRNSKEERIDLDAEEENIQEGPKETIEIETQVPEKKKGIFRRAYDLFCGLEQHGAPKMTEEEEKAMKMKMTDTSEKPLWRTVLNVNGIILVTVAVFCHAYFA
Briefly: SGLT1 assay: Na-dependent 14C-AMG uptake in CHO-K1 cells stably expressing human SGLT1. Type of experiment: cell-based. Particulars: for IC50: 500 μM AMG, 2 hours at 37° C. As for the experimental part:
as §1, §2, §3

On to `Cc1c(Cc2ccc3c(c2)CC3)cc([C@@H]2O[C@H](CO)[C@@H](O)[C@H](O)[C@H]2O)c(O)c1I` [Compound 120], for which the half-inhibitory concentration (IC50) in experiment [1] was 7 nM; in experiment [2] it was 14 nM. Compound `[2H]C1([2H])Cc2ccc(Cc3cc([C@@H]4O[C@H](CO)[C@@H](O)[C@H](O)[C@H]4O)c(F)cc3C)cc21` [Compound 70, (2S,3R,4R,5S,6R)-2-(5-{[(8,8-dideuterium)bicyclo[4.2.0]octa-1(6),2,4-trien-3-yl]methyl}-2-fluoro-4-methylphenyl)-6-(hydroxymethyl)oxane-3,4,5-triol] had an inhibition at 0.03 µM in experiment [1] of 35%. The compound further registered an inhibition at 0.3 µM in experiment [2] of 85%. As to `CCc1ccc([C@@H]2O[C@H](CO)[C@@H](F)[C@H](O)[C@H]2O)cc1Cc1ccc2c(c1)CC2` [Compound 128], the IC50 amounted to 8 nM in experiment [1] and 47 nM in experiment [2].

On to `[2H]C1([2H])Cc2ccc(Cc3cc([C@@H]4O[C@H](CO)[C@@H](O)[C@H](O)[C@H]4O)c(F)cc3C3CC3)cc21` [Compound 74, (2S,3R,4R,5S,6R)-2-(4-cyclopropyl-5-((2,2-dideuterium-1,2-dihydrocyclobutabenzen-4-yl)methyl)-2-fluorophenyl)-6-(hydroxymethyl)-tetrahydro-2H-pyran-3,4,5-triol], for which the 50% inhibitory concentration (IC50) in experiment [1] was found to be 10 nM; in experiment [2], 12 nM.

In experiment [1], `COc1cc(N(C)C)c(Cc2ccc3c(c2)CC3)cc1[C@@H]1O[C@H](CO)[C@@H](O)[C@H](O)[C@H]1O` [Compound 23, (2S,3R,4R,5S,6R)-2-(5-((1,2-dihydrocyclobutabenzen-4-yl)methyl)-4-(dimethylamino)-2-methoxyphenyl)-6-(hydroxymethyl)-tetrahydro-2H-pyran-3,4,5-triol] showed an inhibition at 0.03 µM of 39%. This compound also displayed an inhibition at 0.3 µM in experiment [2] of 24%. Take `OC[C@H]1O[C@@H](c2cc(Cc3ccc4c(c3)CC4)c(C3CC3)cc2O)[C@H](O)[C@@H](O)[C@@H]1O` [Compound 14, (2S,3R,4R,5S,6R)-2-(5-(bicyclo[4.2.0]octa-1(6),2,4-trien-3-ylmethyl)-4-cyclopropyl-2-hydroxyphenyl)-6-(hydroxymethyl)oxane-3,4,5-triol]: the figures for the IC50 in experiment [1] and in experiment [2] were 6 nM and 3 nM, respectively. As for `CCc1cc(F)c([C@@H]2O[C@H](CO)[C@@H](O)[C@H](O)[C@H]2O)cc1Cc1ccc2c(c1)CC2` [Compound 32, (2S,3R,4R,5S,6R)-2-(5-((1,2-dihydrocyclobutabenzen-4-yl)methyl)-4-ethyl-2-fluorophenyl)-6-(hydroxymethyl)-tetrahydro-2H-pyran-3,4,5-triol], the IC50 came to 3 nM in experiment [1] and 10 nM in experiment [2]. On to `OC[C@H]1O[C@@H](c2ccc(C3CC3)c(Cc3ccc4c(c3)CC4)c2)[C@H](O)[C@@H](O)[C@@H]1O` [Compound 5, (2S,3R,4R,5S,6R)-2-(4-cyclopropyl-3-((1,2-dihydrocyclobutabenzen-4-yl)methyl)phenyl)-6-(hydroxymethyl)-tetrahydro-2H-pyran-3,4,5-triol], for which the IC50 was determined as 5 nM in experiment [1] and 32 nM in experiment [2]. As for `[2H]C([2H])([2H])Oc1cc(C)c(C([2H])([2H])c2ccc3c(c2)CC3)cc1[C@@H]1O[C@H](CO)[C@@H](O)[C@H](O)[C@H]1O` [Compound 119], the IC50 in experiment [2] came out at 41 nM. Turning to `[2H]C1([2H])Cc2cc(Cc3cc([C@@H]4O[C@H](CO)[C@@H](O)[C@H](O)[C@H]4O)ccc3C)ccc21` [Compound 85, (2S,3R,4R,5S,6R)-(3-((1,1-dideuterium-1,2-dihydrocyclobutabenzen-4-yl)methyl)-4-methylphenyl)-6-(hydroxymethyl)-tetrahydro-2H-pyran-3,4,5-triol], the IC50 in experiment [1] worked out at 2 nM; in experiment [2] it was 46 nM. As for `Cc1cc(OC(F)(F)F)c([C@@H]2O[C@H](CO)[C@@H](O)[C@H](O)[C@H]2O)cc1Cc1ccc2c(c1)CC2` [Compound 33, (2S,3R,4R,5S,6R)-2-(5-((1,2-dihydrocyclobutabenzen-4-yl)methyl)-4-methyl-2-(trifluoromethoxy)phenyl)-6-(hydroxymethyl)-tetrahydro-2H-pyran-3,4,5-triol], the inhibition at 0.03 µM in experiment [1] worked out at 57%. Also, in experiment [2], the inhibition at 0.3 µM turned out to be 23%. For the compound `OC[C@H]1O[C@@H](c2ccc(Cl)c(C(F)(F)c3ccc4c(c3)CC4)c2)[C@H](O)[C@@H](O)[C@@H]1O` [Compound 140], the IC50 is 2 nM in experiment [1] and 50 nM in experiment [2]. `OC[C@H]1O[C@@H](c2cc(Cc3ccc4c(c3)CC4)c(Cl)cc2OC(F)F)[C@H](O)[C@@H](O)[C@@H]1O` [Compound 37, (2S,3R,4R,5S,6R)-2-(4-chloro-2-(difluoromethoxy)-5-((1,2-dihydrocyclobutabenzen-4-yl)methyl)phenyl)-6-(hydroxymethyl)-tetrahydro-2H-pyran-3,4,5-triol] displayed an inhibition at 0.03 µM in experiment [1] of 84%. The compound also returned an inhibition at 0.3 µM in experiment [2] of 20%. For `[2H]C1([2H])Cc2cc(Cc3cc([C@@H]4O[C@H](CO)[C@@H](O)[C@H](O)[C@H]4O)c(OC)cc3C)ccc21` [Compound 86, (2S,3R,4R,5S,6R)-2-(5-((1,1-dideuterium-1,2-dihydrocyclobutabenzen-4-yl)methyl)-2-methoxy-4-methylphenyl)-6-(hydroxymethyl)-tetrahydro-2H-pyran-3,4,5-triol], the results for the IC50 in experiment [1] and in experiment [2] were 2 nM and 68 nM, respectively. For the compound `[2H]C([2H])([2H])Oc1cc(CC)c(Cc2ccc3c(c2)CC3)cc1[C@@H]1O[C@H](CO)[C@@H](O)[C@H](O)[C@H]1O` [Compound 111], the half-maximal inhibitory concentration (IC50) in experiment [2] came to 13 nM.

Turning to `OC[C@H]1O[C@@H](c2cc(Cc3ccc4c(c3)CC4)c(Cl)cc2O)[C@H](O)[C@@H](O)[C@@H]1O` [Compound 8, (2S,3R,4R,5S,6R)-2-(5-(bicyclo[4.2.0]octa-1(6),2,4-trien-3-ylmethyl)-4-chloro-2-hydroxyphenyl)-6-(hydroxymethyl)oxane-3,4,5-triol], in experiment [2], the IC50 turned out to be 5 nM. The compound `[2H]C([2H])(c1ccc2c(c1)CC2)c1cc([C@@H]2O[C@H](CO)[C@@H](O)[C@H](O)[C@H]2O)c(O)cc1Cl` [Compound 55, (2S,3R,4R,S,6R)-2-(5-[bicyclo[4.2.0]octa-1(6),2,4-trien-3-yl(dideuterium)methyl]-4-chloro-2-hydroxyphenyl)-6-(hydroxymethyl)oxane-3,4,5-triol] displayed an IC50 in experiment [2] of 7 nM. `[2H]C([2H])([2H])Oc1cc(C)c(Cc2ccc3c(c2)CC3)cc1[C@@H]1O[C@H](CO)[C@@H](O)[C@H](O)[C@H]1O` [Compound 110] yielded a half-maximal inhibitory concentration (IC50) in experiment [2] of 15 nM.

What is called IC50 is the concentration that inhibits the measured activity by half. Lower therefore signals greater potency in that assay. By inhibition is commonly meant the percentage by which the read-out fell short of the control. A higher inhibition goes with a response far below the control.
